Source: patent publication US20080119457A1, “Benzene, Pyridine, and Pyridazine Derivatives” (SERENEX, INC., priority 2006, published 2008)

The molecules below were run on HSP-90 (heat shock protein 90) (assay: Determination of affinity for HSP-90 (elution from purine affinity column)).
Type: binding
Design: key: +++ stands for very high; ++ for high; + for moderate
Description: Affinity of test compounds for HSP-90 is determined as follows: Protein mixtures obtained from a variety of organ tissues (for example: spleen, liver and lung) are reversibly bound to a purine affinity column to capture purine-binding proteins, especially HSP-90. The purine affinity column is washed several times, and then eluted with 20 μM, 100 μM, and 500 μM of test compound. Compounds of Formula I elute HP-90 in a dose-dependent manner vs. a control elution using dimethylsulfoxide. The elution profile of Formula I compounds is determined by 1-dimensional SDS polyacrylamide gel electrophoresis. Gels are stained with a fluorescent stain such as sypro ruby (a highly sensitive fluorescent protein stain that can readily detect less than 1 fmol of total protein, i.e., less than 0.04 ng for a 40 kDa protein) or silver nitrate. The gels are imaged using a standard flat bed gel imager and the amount of protein estimated by densitometry. The percent of HSP-90 protein eluted from the column at each concentration is determined and IC50 values are calculated from these estimates.

| Structure (SMILES) | relative binding affinity to HSP-90 |
| --- | --- |
| COc1cc2ccn(-c3ccc(C#N)c(Nc4ccccc4)c3)c2cc1OC [Compound 34, 4-(5,6-dimethoxy-1H-indol-1-yl)-2-(phenylamino)benzonitrile] | + |
| COc1cccc2c1ccn2-c1ccc(C#N)c(N[C@H]2CC[C@H](O)CC2)c1 [Compound 21, 2-(4-Hydroxycyclohexylamino)-4-(4-methoxyindol-1-yl)benzonitrile] | +++ |
| Cc1nn(-c2ccc(C(N)=O)c(NC3CCOCC3)c2)c2nc[nH]c(=O)c12 [Compound 9, 4-(3-Methyl-4-oxo-4,5-dihydro-pyrazolo[3,4-d]pyrimidin-1-yl)-2-(tetrahydro-pyran-4-ylamino)-benzamide] | + |
| Cc1nc(-c2ccc(C#N)c(NC3CCOCC3)c2)n2c1C(=O)CCC2 [Compound 35, 4-(1-methyl-8-oxo-5,6,7,8-tetrahydroimidazo[1,5-a]pyridin-3-yl)-2-(tetrahydro-2H-pyran-4-ylamino)benzonitrile] | +++ |
| CC(=O)c1ccc(-c2ccc(C#N)c(NC3CCC(O)CC3)c2)s1 (centres unmarked) [Compound 23, 4-(5-Acetyl-thiophen-2-yl)-2-(4-hydroxy-cyclohexylamino)-benzonitrile] | ++ |
| COCC(C)Nc1cc(-n2cc(C)c(C(C)=O)c2C)ccc1C(N)=O (centres unmarked) [Compound 47, 4-(3-acetyl-2,4-dimethyl-1H-pyrrol-1-yl)-2-(1-methoxypropan-2-ylamino)benzamide] | ++ |
| N#Cc1ccc(-c2ccc3n2CCCC3=O)cc1NC1CCC(O)CC1 (centres unmarked) [Compound 51, 2-(4-hydroxycyclohexylamino)-4-(8-oxo-5,6,7,8-tetrahydroindolizin-3-yl)benzonitrile] | +++ |
| NC(=O)c1ccc(-n2ccc3ccccc32)c(Cl)c1 [Compound 46, 3-chloro-4-(1H-indol-1-yl)benzamide] | ++ |
| Cc1cc(=O)c2c(C)nn(-c3ccc(C(N)=O)c(NC4CCOCC4)c3)c2o1 [Compound 7, 4-(3,6-Dimethyl-4-oxo-4H-pyrano[2,3-c]pyrazol-1-yl)-2-(tetrahydro-pyran-4-ylamino)-benzamide] | +++ |
| COc1ccc2ccn(-c3ccc(C#N)c(N[C@H]4CC[C@H](O)CC4)c3)c2c1 [Compound 19, 2-(4-Hydroxycyclohexylamino)-4-(6-methoxyindol-1-yl)benzonitrile] | +++ |
| Cn1nc(-c2ccc(C(N)=O)c(NC3CCOCC3)c2)c2c1C(=O)CC(C)(C)C2 [Compound 3, 2-(Tetrahydro-pyran-4-ylamino)-4-(1,5,5-trimethyl-7-oxo-4,5,6,7-tetrahydro-1H-indazol-3-yl)-benzamide] | +++ |
